Assay results published in patent US20250092030A1, “ENHANCERS OF PARTICULATE GUANYLYL CYCLASE RECEPTOR A” (Mayo Foundation for Medical Education and Research, priority 2023, published 2025).
Several values for one entry are separate records, joined by “and”; a condition that tells them apart may be missing. Equal entries are not always repeated.

Biological target: T1, particulate guanylyl cyclase receptor A (pGC-A) (Homo sapiens, UniProt P16066)
T1 construct: expressed in transfected cells; host or cells: HEK293
T1 sequence (P16066 33-1061): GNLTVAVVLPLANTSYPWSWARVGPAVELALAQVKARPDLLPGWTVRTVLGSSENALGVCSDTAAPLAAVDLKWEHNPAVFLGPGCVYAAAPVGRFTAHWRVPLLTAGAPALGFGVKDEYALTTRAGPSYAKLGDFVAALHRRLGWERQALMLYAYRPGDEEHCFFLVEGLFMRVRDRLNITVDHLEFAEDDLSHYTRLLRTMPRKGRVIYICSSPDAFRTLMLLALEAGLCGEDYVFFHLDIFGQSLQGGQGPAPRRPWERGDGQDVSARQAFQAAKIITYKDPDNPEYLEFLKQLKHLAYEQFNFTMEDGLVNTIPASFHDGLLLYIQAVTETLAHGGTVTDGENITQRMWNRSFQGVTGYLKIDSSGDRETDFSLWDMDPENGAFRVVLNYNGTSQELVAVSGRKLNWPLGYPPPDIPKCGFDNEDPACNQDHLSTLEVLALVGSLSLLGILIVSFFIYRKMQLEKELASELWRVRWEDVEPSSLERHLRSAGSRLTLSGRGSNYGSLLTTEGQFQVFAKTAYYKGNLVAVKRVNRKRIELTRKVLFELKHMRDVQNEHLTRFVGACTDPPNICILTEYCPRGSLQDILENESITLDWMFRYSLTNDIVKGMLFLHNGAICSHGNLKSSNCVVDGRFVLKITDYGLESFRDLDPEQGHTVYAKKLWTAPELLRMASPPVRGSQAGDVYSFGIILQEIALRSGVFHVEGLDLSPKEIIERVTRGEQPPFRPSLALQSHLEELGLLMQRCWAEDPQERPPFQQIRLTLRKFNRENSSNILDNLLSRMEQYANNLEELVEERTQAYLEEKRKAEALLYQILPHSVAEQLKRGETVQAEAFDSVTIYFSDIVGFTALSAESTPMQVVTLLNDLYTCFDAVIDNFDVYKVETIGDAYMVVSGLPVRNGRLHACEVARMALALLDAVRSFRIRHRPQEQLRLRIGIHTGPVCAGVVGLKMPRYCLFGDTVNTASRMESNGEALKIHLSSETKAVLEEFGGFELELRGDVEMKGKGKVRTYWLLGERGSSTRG
T1 sequence (P01160 124-151 partner limits assumed): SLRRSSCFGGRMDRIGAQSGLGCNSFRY
Assay: cGMP production by HTRF in HEK293 cells overexpressing pGC-A, with ANP
Format: cell-based
Details: for Emax: HEK293, HEK293 cells overexpressing pGC-A, read-out: Max efficacy; for Emax / Max efficacy: cGMP normalized to maximal amount produced by an EC80 concentration of ANP; for EC50 / Max efficacy: HEK293 cells overexpressing pGC-A; for EC50: test compound plus EC20 concentration of ANP, cGMP by HTRF
From the text: Assay: Generally, the assay monitors the production of cGMP, the second messenger generated by pGC-A, by Time-Resolved Florescence (HTRF) in HEK293 cells overexpressing the pGC-A. pGC-A suspension cells were stimulated in the presence of the test compound and an EC20 concentration of ANP. The quantity of cGMP was detected by competitive immunoassay using Eu^3+ cryptate-labeled anti-cGMP and d2-labeled cGMP and normalized to maximal amount produced by an EC80 concentration of ANP. Compound EC50 values were determined in the primary assay, in the presence or absence of ANP, to determine mode of action as positive modulators and tested for selectivity in the same assay platform but in HEK cells overexpressing the particulate guanylyl cyclase B receptor (pGC-B), of which CNP is the endogenous ligand.
Assay details: 20 nL of 10 μM test compound in DMSO was added to columns 5-48 of 1536 well white high base screening plates (Corning, New York, NY) cells using 550 ECHO acoustic dispenser (Labcyte, San Jose, CA). Alpha-atrial natriuretic peptide (ANP) (Phoenix Pharmaceutics) was prepared as stock aliquots at 5 μM in PBS with 0.1% BSA. An approximate […] concentration of ANP ([…]) in assay buffer (HBSS containing 5 mM HEPES and 0.05% BSA) was added to columns 3-48 at a volume of 1 μL. Assay buffer only was added to column 1 and assay buffer containing a saturating concentration of ANP (5 nM) was added to column 2. HEK293 cells overexpressing GC-A were resuspended in assay media (OptimMem media containing 2% Heat-inactivated Fetal bovine serum and L-glutamine) at a density of 6×10^5 cells/mL and 2 μL were plated in screening plates (1200 cells/well) in suspension using a Bioraptr 2. Plates were spun at 1000 rpm for 1 min and incubated for 30 min at room temperature. 1.5 μL d2-labeled cGMP followed by 1.5 μL Eu^3+ cryptate-labeled anti-cGMP cGMP detection kit (CiBio; #62GM2PEC) prepared according to manufacturer's protocol were added to all wells using a Bioraptr 2 and TR-FRET signal was detected on an EnVision detector (PerkinElmer). Wells treated with 0.3% DMSO only serve as blank controls (column 1); wells treated with 0.3% DMSO and 5 nM ANP (columns 2) serve as positive controls and wells treated with 0.3% DMSO and […] ANP (columns 3-4) serve as negative controls.

Structure (SMILES) | Emax | EC50 | Max efficacy
CN(C)CCN1CC(O)CC(C(=O)Nc2nc3c(F)cc(F)cc3s2)C1 (centres unmarked) [compound 262] | 86% | 0.4 µM | 
O=C(Nc1nc2c(F)cc(F)cc2s1)C1CCCN(c2ccnc(F)c2)C1 (centres unmarked) [compound 106] | 101% | 3.5 µM | 
CN(C)CCN1CCCCC(C(=O)Nc2nc3c(F)cc(F)cc3s2)C1 (centres unmarked) [compound 055] | 89% | 0.6 µM | 
O=C(Nc1nc2c(F)cc(F)cc2s1)c1ccccc1 [compound 199] |  | > 10 µM | 
O=C(Nc1nc2c(F)cc(F)cc2s1)C1CCCN(c2ccncc2)C1 (centres unmarked) [compound 081] | 87% | 0.1 µM and 0.07 µM and 0.3 µM | 87, 87, 87%
O=C(Nc1nc2c(Cl)cc(F)cc2s1)C1CCCN(C2CNC2)C1 (centres unmarked) [compound 136] | 46% | 0.3 µM | 
O=C1CCC(C(=O)Nc2nc3c(F)cc(F)cc3s2)CN1 (centres unmarked) [compound 222] | 58% | 1.01 µM | 
O=C(Nc1nc2c(F)cc(F)cc2s1)C1CCCN(c2ccncc2Br)C1 (centres unmarked) [compound 113] |  | > 5 µM | 
CN(C)CCN1CCCC(C(=O)Nc2nc3ccccc3s2)C1 (centres unmarked) [compound 216] |  | > 10 µM | 
CN(C)CCN1CCCC(C(=O)Nc2nc3c(Cl)cccc3s2)C1 (centres unmarked) [compound 225] | 97% | 0.36 µM | 
COC1CNCC(C(=O)Nc2nc3c(F)cc(F)cc3s2)C1 (centres unmarked) [compound 265] | 75% | 1.7 µM | 
Cc1cc(N2CCCC(C(=O)Nc3nc4c(F)cc(F)cc4s3)C2)ccn1 (centres unmarked) [compound 105] | 87% | 0.09 µM | 
CN(C)CCN1CCCC(C(=O)Nc2nc3c(Br)cccc3s2)C1 (centres unmarked) [compound 226] |  | 0.16 µM and 0.9 µM | 62% and 87%
CN(C)CCN[C@@H]1CCC[C@H](C(=O)Nc2nc3c(F)cc(F)cc3s2)C1 [compound 207] |  | > 5 µM | 
O=C(Nc1nc2c(F)cc(F)cc2s1)C1CCCN(CCN2CCOCC2)C1 (centres unmarked) [compound 244] | 94% | 0.28 µM | 
CN(C)CCN1CCCC(C(=O)N(C)c2nc3c(F)cc(F)cc3s2)C1 (centres unmarked) [compound 232] | 82% | 2.1 µM | 
CN1CC(N2CCCC(C(=O)Nc3nc4c(F)cc(F)cc4s3)C2)C1 (centres unmarked) [compound 084] | 83% | 0.07 µM and 0.02 µM | 67%
CN(CCO)CCN1CCCC(C(=O)Nc2nc3c(F)cc(F)cc3s2)C1 (centres unmarked) [compound 242] | 105% | 0.7 µM | 
O=C(Nc1nc2c(F)cc(F)cc2s1)c1cccc(Cl)c1 [compound 201] |  | > 10 µM | 
O=C(Nc1nc2c(F)cc(F)cc2s1)C1CCCN(CCN2CCOC2=O)C1 (centres unmarked) [compound 241] | 93% | 1.6 µM | 
NCCN1CCCC(C(=O)Nc2nc3c(F)cc(F)cc3s2)C1 (centres unmarked) [compound 236] | 85% | 0.7 µM | 
CN(C)C(=O)N1CCCC(C(=O)Nc2nc3c(Cl)cc(F)cc3s2)C1 (centres unmarked) [compound 282] | 61% | 0.18 µM | 
O=C(Nc1nc2c(F)cc(F)cc2s1)C1CCCN(CCn2cccn2)C1 (centres unmarked) [compound 067] | 88% | 0.7 µM | 
CN(C)CCN1CCCC(C(=O)Nc2nc3ccc(F)cc3s2)C1 (centres unmarked) [compound 015] |  | > 10 µM | 
CN(C)CCN1CCCC(C(=O)Nc2nc3c(Cl)cc(Cl)cc3s2)C1 (centres unmarked) [compound 251] |  | > 5 µM | 
O=C(Nc1nc2c(F)cc(F)cc2s1)C1CCCN(C(=O)N2CCCC2)C1 (centres unmarked) [compound 275] |  | > 5 µM | 
CN(C)CCN1CCCC(C)(C(=O)Nc2nc3c(F)cc(F)cc3s2)C1 (centres unmarked) [compound 228] |  | > 5 µM | 

Structure (SMILES) | Emax | EC50 | Max efficacy
CN(C)CCCN1CCCCC1C(=O)Nc1nc2c(F)cc(F)cc2s1 (centres unmarked) [compound 041] | 101% | 1.53 µM | 
CN1CCC(N2CCCCC2C(=O)Nc2nc3c(F)cc(F)cc3s2)C1 (centres unmarked) [compound 038] |  | > 5 µM | 
N[C@@H]1CCC[C@H](C(=O)Nc2nc3c(F)cc(F)cc3s2)C1 [compound 208] |  | 0.7 µM | 
O=C(O)CNCCN1CCCC(C(=O)Nc2nc3c(F)cc(F)cc3s2)C1 (centres unmarked) [compound 260] |  | > 5 µM | 
CN(C)CCN1CCCC(C(=O)Nc2ccc3cccc(F)c3n2)C1 (centres unmarked) [compound 191] |  | > 5 µM | 
COc1ccc2nc(NC(=O)C3CCCN(CCN(C)C)C3)sc2c1 (centres unmarked) [compound 018] |  | > 10 µM | 
O=C(Nc1nc2c(F)cc(F)cc2s1)C1CNCCO1 (centres unmarked) [compound 047] |  | > 5 µM | 
O=C(Nc1nc2c(F)cc(F)cc2s1)C1CCCN(C(=O)NCc2ccccc2)C1 (centres unmarked) [compound 279] |  | > 5 µM | 
CN(C)CCN1CCCC(C(=O)Nc2nc3ccc(Cl)cc3s2)C1 (centres unmarked) [compound 016] | 94% | 9.5 µM | 
COc1cccc2sc(NC(=O)C3CCCN(CCN(C)C)C3)nc12 (centres unmarked) [compound 006] |  | > 10 µM | 
COc1ccc(-c2csc(NC(=O)C3CCCN(CCN(C)C)C3)n2)cc1 (centres unmarked) [compound 156] |  | > 5 µM | 
Cc1ccc2nc(NC(=O)C3CCCN(CCN(C)C)C3)sc2c1 (centres unmarked) [compound 017] |  | > 10 µM | 
CN(C)CCN1CCCC(C(=O)Nc2nc3c(F)cc(F)cc3c(=O)[nH]2)C1 (centres unmarked) [compound 182] |  | > 5 µM | 
O=C(Nc1nc2c(F)cc(F)cc2s1)C1CCCN(C(=O)Nc2ccccc2)C1 (centres unmarked) [compound 280] |  | > 5 µM | 
CN(C)C(=O)CN1CCCC(C(=O)Nc2nc3c(F)cc(F)cc3s2)C1 (centres unmarked) [compound 229] | 91% | 1.9 µM | 
CN1CCCC1CN1CCCC(C(=O)Nc2nc3c(F)cc(F)cc3s2)C1 (centres unmarked) [compound 072] |  | 1.2 µM and 1 µM | 118% and 94%
O=C(Nc1nc2c(F)cc(F)cc2s1)C1CNc2ccccc2C1 (centres unmarked) [compound 058] | 95% | 2.6 µM | 
CCN1CC(N2CCCC(C(=O)Nc3nc4c(Cl)cc(F)cc4s3)C2)C1 (centres unmarked) [compound 135] | 85% | 0.11 µM | 
CCN(CC)C(=O)N1CCCC(C(=O)Nc2nc3c(F)cc(F)cc3s2)C1 (centres unmarked) [compound 276] | 49% | 1.6 µM and > 5 µM | 
CN(C)CCN1Cc2ccccc2C(C(=O)Nc2nc3c(F)cc(F)cc3s2)C1 (centres unmarked) [compound 059] |  | > 5 µM | 
O=C(O)C1CNCC(C(=O)Nc2nc3c(F)cc(F)cc3s2)C1 (centres unmarked) [compound 271] |  | > 5 µM | 
CN(C)CCN1CCCC(C(=O)Nc2nc(-c3ccccc3Cl)cs2)C1 (centres unmarked) [compound 148] |  | > 5 µM | 
CN(C)c1ccc(N2CCCC(C(=O)Nc3nc4c(F)cc(F)cc4s3)C2)cc1 (centres unmarked) [compound 066] | 77% | 1.9 µM | 
CN(C)CCN[C@@H]1CCCC[C@@H]1C(=O)Nc1nc2c(F)cc(F)cc2s1 [compound 211] |  | 1.53 µM | 
O=C(Nc1nc2c(F)cc(F)cc2s1)C1CCCN(c2ccncn2)C1 (centres unmarked) [compound 109] | 82% | 0.2 µM and 1.08 µM | 74%
CN(C)CCN1CCCC(C(=O)Nc2nc(-c3cccc(F)c3)cs2)C1 (centres unmarked) [compound 146] |  | > 5 µM | 
